Experiments:
[1] = test system: HS-5 cells; set-up: method as in PMID 36768497; details: cited from earlier work
[2] = test system: KB cell line; set-up: method as in PMID 17089326; details: cited from earlier work
[3] = test system: HS-5 cells; experiment: Metabolic activity, resazurin staining, non-malignant HS-5; format: cell-based; details: HS5, HS-5 (non-malignant), 72 h, 95% confidence interval in brackets, read-out: IC50 inhibition of metabolic activity
Procedure: (§1) Acute myeloid leukemia cell line HL-60 and multiple myeloma cell lines AMO-1 and KMS-12-PE were obtained from the German Collection of Microorganisms and Cell Cultures (DSMZ), Braunschweig, Germany, and non-tumorigenic stromal cell line HS-5 was acquired from the American Type Culture Collection (ATCC, Manassas, VA, USA). All cell lines were cultured in RPMI 1640 medium without phenol red (Pan Biotech, Aidenbach, Germany), supplemented with 2 mM glutamine, 100 U/mL penicillin, 100 µg/mL streptomycin (Sigma-Aldrich, St. Louis, MO, USA), and 10% fetal bovine serum (FBS Maximus, Catus Biotech GmbH, Tutzing, Germany) at 37 °C in a humidified atmosphere of 5% CO2/95% air. Cells were fed twice weekly. Logarithmically growing cells were resuspended at 1 × 10^5 cells/mL, plated in triplicate in round-bottom 96-well plates (100 µL per well; Falcon, Becton Dickinson, Franklin Lakes, NJ, USA), and incubated at 37 °C in 5% CO2/95% air for 2 h. […] Cell proliferation was assessed by [^3H]-thymidine uptake. […] Cells were harvested using a semi-automated device, and [^3H]-thymidine incorporation (expressed in counts per minute, cpm) was measured with a scintillation counter (MicroBeta TriLux, PerkinElmer, Waltham, MA, USA). Metabolic activity was assessed by resazurin staining. […] Relative fluorescence units (RFUs) were measured using a Synergy H1 plate reader equipped with a 560 nm excitation/590 nm emission filter set (BioTek; Agilent, Santa Clara, CA, USA). Proliferation and metabolic activity in the absence of compounds were defined as 100% (control), and the values for compound-treated samples were expressed as percentages relative to the control. Selectivity indices were calculated by dividing the IC50 value of each compound against HS-5 cells through the IC50 values against the investigated cell lines.
(§2) The Wilcoxon Rank Sum Test was used to analyze proliferation and metabolic activity in the absence and presence of varying compound concentrations (NCSS 2007 software, version 07.1.2, Kaysville, UT, USA). […] IC50 values were calculated using GraphPad Prism 10.1.2. […]

[4] = test system: HS-5 cells; experiment: Proliferation, [3H]-thymidine uptake, non-malignant HS-5; format: cell-based; details: HS5; HS-5 (non-malignant), 72 h, 95% confidence interval in brackets; read-out: IC50 inhibition of proliferation
Procedure: as §1, §2

[5] = test system: AMO-1 cells; experiment: Proliferation, [3H]-thymidine uptake, AMO-1; format: cell-based; details: for IC50: AMO-1, 72 h, 95% confidence interval in brackets, read-out: IC50 inhibition of proliferation; for Selectivity index (proliferation): IC50 HS-5 / IC50 AMO-1
Procedure: (§3) Acute myeloid leukemia cell line HL-60 and multiple myeloma cell lines AMO-1 and KMS-12-PE were obtained from the German Collection of Microorganisms and Cell Cultures (DSMZ), Braunschweig, Germany, and non-tumorigenic stromal cell line HS-5 was acquired from the American Type Culture Collection (ATCC, Manassas, VA, USA). All cell lines were cultured in RPMI 1640 medium without phenol red (Pan Biotech, Aidenbach, Germany), supplemented with 2 mM glutamine, 100 U/mL penicillin, 100 µg/mL streptomycin (Sigma-Aldrich, St. Louis, MO, USA), and 10% fetal bovine serum (FBS Maximus, Catus Biotech GmbH, Tutzing, Germany) at 37 °C in a humidified atmosphere of 5% CO2/95% air. Cells were fed twice weekly. Logarithmically growing cells were resuspended at 1 × 10^5 cells/mL, plated in triplicate in round-bottom 96-well plates (100 µL per well; Falcon, Becton Dickinson, Franklin Lakes, NJ, USA), and incubated at 37 °C in 5% CO2/95% air for 2 h. Subsequently, the compounds were adjusted in the cell culture medium to reach the final concentrations in a total volume of 150 µL and incubated for an additional 72 h. Cell proliferation was assessed by [^3H]-thymidine uptake. Each well was exposed to 2 µCi [^3H]-thymidine (Hartmann Analytic, Braunschweig, Germany) during the final 12–16 h of incubation. Cells were harvested using a semi-automated device, and [^3H]-thymidine incorporation (expressed in counts per minute, cpm) was measured with a scintillation counter (MicroBeta TriLux, PerkinElmer, Waltham, MA, USA). Metabolic activity was assessed by resazurin staining. Resazurin (Carl Roth, Karlsruhe, Germany) was dissolved in distilled water at a concentration of 0.1 mg/mL, and 15 µL of this solution was added to each well, followed by a 2 h incubation at 37 °C. Relative fluorescence units (RFUs) were measured using a Synergy H1 plate reader equipped with a 560 nm excitation/590 nm emission filter set (BioTek; Agilent, Santa Clara, CA, USA). Proliferation and metabolic activity in the absence of compounds were defined as 100% (control), and the values for compound-treated samples were expressed as percentages relative to the control. Selectivity indices were calculated by dividing the IC50 value of each compound against HS-5 cells through the IC50 values against the investigated cell lines.
(§4) The Wilcoxon Rank Sum Test was used to analyze proliferation and metabolic activity in the absence and presence of varying compound concentrations (NCSS 2007 software, version 07.1.2, Kaysville, UT, USA). A p-value < 0.05 was considered statistically significant. IC50 values were calculated using GraphPad Prism 10.1.2. This software reports 95% confidence intervals instead of standard errors. […] Nonetheless, the figures clearly illustrate the IC50 values due to the narrow concentration range tested.

[6] = test system: KMS-12-PE cells; experiment: Proliferation, [3H]-thymidine uptake, KMS-12-PE; format: cell-based; details: for IC50: KMS-12-PE, 72 h, 95% confidence interval in brackets, read-out: IC50 inhibition of proliferation; for Selectivity index (proliferation): IC50 HS-5 / IC50 KMS-12-PE
Procedure: as §3, §4

[7] = test system: MOLM-13 cells; experiment: Proliferation, [3H]-thymidine uptake, MOLM-13; format: cell-based; details: for IC50: Homo sapiens, MOLM-13, 72 h, 95% confidence interval in brackets, read-out: IC50 inhibition of proliferation
Procedure: [The source words this procedure for another cell line and reports this cell line under the same test.] as §3, §4

[8] = test system: BC cell line; set-up: method as in PMID 17089326; details: cited from earlier work
[9] = test system: AMO-1 cells; experiment: Metabolic activity, resazurin staining, AMO-1; format: cell-based; details: for IC50: Homo sapiens, AMO1, AMO-1, 72 h, resazurin, 95% confidence interval in brackets, read-out: IC50 inhibition of metabolic activity; for Selectivity index (metabolic activity): IC50 HS-5 / IC50 AMO-1
Procedure: as §3, §4
(§5) Proliferation inhibition often leads to cell death. Therefore, the cytotoxic activity of the compounds was further evaluated using a modified 3-(4,5-dimethylthiazol-2-yl)-2,5-diphenyltetrazolium bromide (MTT) assay, the resazurin (Alamar Blue) assay. Metabolically active cells reduce the non-fluorescent dye resazurin to the fluorescent dye resorufin via mitochondrial reductase activity, which correlates with cell viability. In the first step the metabolic activity of the four isolated flavonoids was investigated, showing a dose-dependent reduction, but to a much lower extent than in the proliferation assays (Table A2). In fact, only 7,3′,4′-trimethoxymyricetin (2) inhibited the metabolic activity of all four cell lines by more than 50% at a concentration of 100 µM.

[10] = test system: HL-60 cells; experiment: Proliferation, [3H]-thymidine uptake, HL-60; format: cell-based; details: for IC50: Homo sapiens, HL-60, 72 h, 95% confidence interval in brackets, read-out: IC50 inhibition of proliferation
Procedure: as §3, §4

[11] = test system: KMS-12-PE cells; experiment: Metabolic activity, resazurin staining, KMS-12-PE; format: cell-based; details: for IC50: Homo sapiens, KMS-12-PE, 72 h, resazurin, 95% confidence interval in brackets, read-out: IC50 inhibition of metabolic activity; for Selectivity index (metabolic activity): IC50 HS-5 / IC50 KMS-12-PE
Procedure: as §3, §4, §5

[12] = test system: MOLM-13 cells; experiment: Metabolic activity, resazurin staining, MOLM-13; format: cell-based; details: for IC50: Homo sapiens, MOLM-13, 72 h, resazurin, 95% confidence interval in brackets, read-out: IC50 inhibition of metabolic activity; for Selectivity index (metabolic activity): IC50 HS-5 / IC50 MOLM-13
Procedure: [The source words this procedure for another cell line and reports this cell line under the same test.] as §3, §4, §5

[13] = test system: HL-60 cells; experiment: Metabolic activity, resazurin staining, HL-60; format: cell-based; details: for IC50: Homo sapiens, HL-60, 72 h, resazurin, 95% confidence interval in brackets, read-out: IC50 inhibition of metabolic activity; for Selectivity index (metabolic activity): IC50 HS-5 / IC50 HL-60
Procedure: as §3, §4, §5

[14] = test system: NF-κB p65; set-up: method as in PMID 22685350; details: read-out: concentration inhibiting NF-κB p65; cited from earlier work
[15] = test system: human colon cancer cell line HT-29; set-up: method as in PMID 22685350; details: cited from earlier work
[16] = test system: KMS-12-PE; details: 10 nM; cited from earlier work
[17] = test system: KMS-12-BM; set-up: method as in PMID 20088798; details: sister cell line of KMS-12-PE, read-out: IC50 inhibition of proliferation; cited from earlier work
[18] = test system: other MM cell lines; set-up: method as in PMID 20088798; details: cited from earlier work

SMILES	IC50 [3] [µM]	IC50 [4] [µM]	IC50 ([5]; Homo sapiens, AMO1, 72 h) [µM]	Selectivity index (proliferation) [5]	IC50 ([6]; Homo sapiens) [µM]	Selectivity index (proliferation) [6]	IC50 [7] [µM]	IC50 [9] [µM]	Selectivity index (metabolic activity) [9]	IC50 [10] [µM]	IC50 [11] [µM]	Selectivity index (metabolic activity) [11]	IC50 [12] [µM]	Selectivity index (metabolic activity) [12]	IC50 [13] [µM]	Selectivity index (metabolic activity) [13]	other results
N.N.[Cl][Pt][Cl] [Cisplatin]	–	–	–	–	–	–	–	–	–	–	–	–	–	–	–	–	concentration needed to inhibit HS-5 cells [1]: above 1 µM
C=C1C(=O)O[C@@H]2/C=C(/CO)C3=CC(=O)[C@@](C)(C[C@H](OC(=O)/C(C)=C\C)[C@@H]12)O3 [Compound 6, centratherin]	4.5	2.5	2.2	1.1	2.2	1.4	1.1	2.4	1.9	1.2	2.7	1.6	1.3	3.5	1.9	2.4	IC50 [2]: < 0.3 µM; IC50 [6]: 1.8 µM; Selectivity index (proliferation) ([7]; IC50 HS-5 / IC50 MOLM-13): 2.2; IC50 [8]: < 0.3 µM; Selectivity index (proliferation) ([10]; IC50 HS-5 / IC50 HL-60): 2.1
C=C1C(=O)O[C@@H]2/C=C(/C)C3=CC(=O)[C@@](C)(C[C@H](OC(=O)/C(C)=C\C)[C@@H]12)O3 [Compound 7, lychnopholide]	4.9	4.3	1.8	2.0	2.6	1.7	1.4	3.4	1.4	1.3	4	1.2	1.8	2.8	2.9	1.7	IC50 [14]: 2.9 µM; IC50 [5]: 2.2 µM; IC50 [15]: 1.4 µM
COc1cccc2c1C(=O)c1c(O)c3c(c(O)c1C2=O)C[C@@](O)(C(=O)CO)C[C@@H]3O[C@H]1C[C@H](N)[C@H](O)[C@H](C)O1 [doxorubicin]	–	–	–	–	–	–	–	–	–	–	–	–	–	–	–	–	proliferation inhibited to [16]: 45.5%
Nc1cccc2c1CN(C1CCC(=O)NC1=O)C2=O (centres unmarked) [lenalidomide]	–	–	–	–	–	–	–	–	–	–	–	–	–	–	–	–	IC50 [17]: 0.057 µM; IC50 concentrations (in words) [18]: high µM range
